Laboratory results from ChEMBL document CHEMBL1201862, “PubChem BioAssay data set” (2004).
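Results reflect a 48-hour exposure of cells in 96-well plates to compound at five concentrations. GI50: concentration for 50% inhibition of growth.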 The source made the active and inactive calls. Rule as the data show it: active = GI50 up to about 1.1 µM and inactive = higher.

What was measured:
Assay in all cases: inhibition of tumour cell growth, NCI panel, 48 h
A549 = system: A549
IGROV-1 = system: IGROV-1
UO-31 = system: UO-31
NCI-H522 = system: NCI-H522
HCT-116 = system: HCT-116
OVCAR-3 = system: OVCAR-3
RPMI-8226 = system: RPMI-8226
TK-10 = system: TK-10
OVCAR-4 = system: OVCAR-4
UACC-62 = system: UACC-62
CCRF-CEM = system: CCRF-CEM
A498 = system: A498
Malme-3M = system: Malme-3M
HT-29 = system: HT-29
SW-620 = system: SW-620
SK-MEL-5 = system: SK-MEL-5
KM12 = system: KM12
SR = system: SR

SMILES	GI50 (A549)	GI50 (IGROV-1)	GI50 (UO-31)	GI50 (NCI-H522)	GI50 (HCT-116)	GI50 (OVCAR-3)	GI50 (RPMI-8226)	GI50 (TK-10)	GI50 (OVCAR-4)	GI50 (UACC-62)	GI50 (CCRF-CEM)	GI50 (A498)	GI50 (Malme-3M)	GI50 (HT-29)	GI50 (SW-620)	GI50 (SK-MEL-5)	GI50 (KM12)	GI50 (SR)
CCC1(CC)C(=O)NC(=S)N=C1N	> 100 µM (inactive)	> 100 µM (inactive)	> 100 µM (inactive)	> 100 µM (inactive)	> 100 µM (inactive)	> 100 µM (inactive)	> 100 µM (inactive)	> 100 µM (inactive)	> 100 µM (inactive)	> 100 µM (inactive)	> 100 µM (inactive)	> 100 µM (inactive)	> 100 µM (inactive)	> 100 µM (inactive)	> 100 µM (inactive)	–	–	–
CCc1cccc(C)c1NC(=O)C1=C(C)NC(C)=C(C(=O)Nc2c(C)cccc2CC)C1c1ccc([N+](=O)[O-])cc1	33.5 µM (inactive)	29.6 µM (inactive)	16.3 µM (inactive)	15.5 µM (inactive)	–	44.9 µM (inactive)	15.3 µM (inactive)	83.9 µM (inactive)	13.4 µM (inactive)	–	27.4 µM (inactive)	40.8 µM (inactive)	75.3 µM (inactive)	44.5 µM (inactive)	72.1 µM (inactive)	34 µM (inactive)	49.9 µM (inactive)	–
O=c1[nH]c(=O)n([C@@H]2C[C@H](CO)[C@H](O)C2)cc1/C=C/Br	> 100 µM (inactive)	> 100 µM (inactive)	> 100 µM (inactive)	> 100 µM (inactive)	> 100 µM (inactive)	> 100 µM (inactive)	> 100 µM (inactive)	> 100 µM (inactive)	> 100 µM (inactive)	> 100 µM (inactive)	> 100 µM (inactive)	> 100 µM (inactive)	> 100 µM (inactive)	> 100 µM (inactive)	> 100 µM (inactive)	> 100 µM (inactive)	> 100 µM (inactive)	–
Cc1ccc(NC(=O)CC/C(CC(=O)C(C)(C)C)=N\Nc2ccc([N+](=O)[O-])cc2[N+](=O)[O-])cc1C	37.7 µM (inactive)	90.6 µM (inactive)	53.2 µM (inactive)	–	50.5 µM (inactive)	0.0195 µM (active)	–	> 100 µM (inactive)	–	32.2 µM (inactive)	25.2 µM (inactive)	–	–	57 µM (inactive)	46.3 µM (inactive)	–	67.5 µM (inactive)	39.7 µM (inactive)
NC1=NN(c2ccccc2)C(=O)C1C(=O)CCC(=O)Nc1cccc(Cl)c1 (stereo not drawn)	> 100 µM (inactive)	> 100 µM (inactive)	> 100 µM (inactive)	> 100 µM (inactive)	> 100 µM (inactive)	> 100 µM (inactive)	–	> 100 µM (inactive)	> 100 µM (inactive)	> 100 µM (inactive)	> 100 µM (inactive)	> 100 µM (inactive)	> 100 µM (inactive)	> 100 µM (inactive)	> 100 µM (inactive)	> 100 µM (inactive)	> 100 µM (inactive)	–
O=c1cc(-c2ccccc2)nc(/C=C(\O)c2ccncc2)n1-c1ccccc1	> 100 µM (inactive)	> 100 µM (inactive)	> 100 µM (inactive)	> 100 µM (inactive)	> 100 µM (inactive)	> 100 µM (inactive)	–	> 100 µM (inactive)	> 100 µM (inactive)	> 100 µM (inactive)	> 100 µM (inactive)	> 100 µM (inactive)	> 100 µM (inactive)	> 100 µM (inactive)	> 100 µM (inactive)	> 100 µM (inactive)	> 100 µM (inactive)	–
COc1ccc2[nH]c3c4c(c5cc(C(C)(C)C)ccc5c3c2c1)C(=O)N(c1ccccc1)C4=O	> 100 µM (inactive)	> 100 µM (inactive)	> 100 µM (inactive)	> 100 µM (inactive)	> 100 µM (inactive)	> 100 µM (inactive)	> 100 µM (inactive)	60.5 µM (inactive)	> 100 µM (inactive)	> 100 µM (inactive)	> 10 µM (inactive)	24.9 µM (inactive)	> 100 µM (inactive)	> 100 µM (inactive)	> 100 µM (inactive)	> 100 µM (inactive)	> 100 µM (inactive)	–
CC(C)[C@H](COC(C)(C)C)/N=C/N1CSc2ccccc21	42 µM (inactive)	34 µM (inactive)	96.2 µM (inactive)	31.9 µM (inactive)	27.6 µM (inactive)	23 µM (inactive)	20.4 µM (inactive)	51.5 µM (inactive)	27.9 µM (inactive)	48.8 µM (inactive)	33.1 µM (inactive)	46.1 µM (inactive)	–	28.9 µM (inactive)	35.4 µM (inactive)	25.1 µM (inactive)	27.6 µM (inactive)	–
O=C(/N=C(\Nc1ccccc1)SCCS/C(=N/C(=O)c1cccs1)Nc1ccccc1)c1cccs1	41.8 µM (inactive)	> 100 µM (inactive)	31.7 µM (inactive)	20.9 µM (inactive)	49 µM (inactive)	54 µM (inactive)	36.8 µM (inactive)	> 100 µM (inactive)	30.3 µM (inactive)	47 µM (inactive)	34.8 µM (inactive)	56.9 µM (inactive)	91.6 µM (inactive)	33.3 µM (inactive)	95.7 µM (inactive)	21.5 µM (inactive)	41 µM (inactive)	–
CCCCCCCCCCCCC(Br)C(C)=O (stereo not drawn)	> 100 µM (inactive)	> 100 µM (inactive)	> 100 µM (inactive)	> 100 µM (inactive)	> 100 µM (inactive)	> 100 µM (inactive)	–	> 100 µM (inactive)	> 100 µM (inactive)	> 100 µM (inactive)	> 100 µM (inactive)	> 100 µM (inactive)	> 100 µM (inactive)	> 100 µM (inactive)	> 100 µM (inactive)	> 100 µM (inactive)	> 100 µM (inactive)	–
COc1ccc(/C=N/N=C(\N)NO)c(Cl)c1O	5.43 µM (inactive)	44.9 µM (inactive)	11.2 µM (inactive)	6.82 µM (inactive)	15.2 µM (inactive)	4.69 µM (inactive)	36 µM (inactive)	–	15.8 µM (inactive)	12.9 µM (inactive)	14.7 µM (inactive)	–	28.4 µM (inactive)	–	19.4 µM (inactive)	5.11 µM (inactive)	12.5 µM (inactive)	–
COC(c1ccccc1)C(c1ccccc1)N1CCOCC1 (stereo not drawn)	> 100 µM (inactive)	> 100 µM (inactive)	> 100 µM (inactive)	> 100 µM (inactive)	> 100 µM (inactive)	> 100 µM (inactive)	49.7 µM (inactive)	> 100 µM (inactive)	> 100 µM (inactive)	> 100 µM (inactive)	> 100 µM (inactive)	> 100 µM (inactive)	> 100 µM (inactive)	> 100 µM (inactive)	> 100 µM (inactive)	> 100 µM (inactive)	> 100 µM (inactive)	–
COc1ccc(C(=O)Nc2ccc(S(=O)(=O)NCC(=O)O)cc2)cc1	> 100 µM (inactive)	> 100 µM (inactive)	> 100 µM (inactive)	> 100 µM (inactive)	–	> 100 µM (inactive)	> 100 µM (inactive)	> 100 µM (inactive)	> 100 µM (inactive)	> 100 µM (inactive)	> 100 µM (inactive)	> 100 µM (inactive)	> 100 µM (inactive)	> 100 µM (inactive)	> 100 µM (inactive)	> 100 µM (inactive)	> 100 µM (inactive)	–
O=C1Nc2ccccc2N=CC1NC(=O)C(c1ccccc1)c1ccccc1 (stereo not drawn)	> 100 µM (inactive)	> 100 µM (inactive)	> 100 µM (inactive)	> 100 µM (inactive)	> 100 µM (inactive)	> 100 µM (inactive)	> 100 µM (inactive)	> 100 µM (inactive)	> 100 µM (inactive)	> 100 µM (inactive)	> 100 µM (inactive)	> 100 µM (inactive)	> 100 µM (inactive)	> 100 µM (inactive)	> 100 µM (inactive)	> 100 µM (inactive)	> 100 µM (inactive)	–
COC1CCC(OS(C)(=O)=O)C(CO)O1 (stereo not drawn)	> 100 µM (inactive)	> 100 µM (inactive)	> 100 µM (inactive)	> 100 µM (inactive)	> 100 µM (inactive)	> 100 µM (inactive)	–	> 100 µM (inactive)	–	> 100 µM (inactive)	> 100 µM (inactive)	–	> 100 µM (inactive)	> 100 µM (inactive)	> 100 µM (inactive)	> 10 µM (inactive)	> 100 µM (inactive)	> 100 µM (inactive)
Cc1ccc(NC(=O)NC23CC4CC(CC(F)(C4)C2)C3)cc1	> 100 µM (inactive)	> 100 µM (inactive)	40.1 µM (inactive)	99.5 µM (inactive)	41.3 µM (inactive)	> 100 µM (inactive)	28.3 µM (inactive)	> 100 µM (inactive)	–	69.3 µM (inactive)	56.4 µM (inactive)	> 100 µM (inactive)	> 100 µM (inactive)	53.6 µM (inactive)	> 100 µM (inactive)	> 100 µM (inactive)	82.6 µM (inactive)	–
CS/C(=N\c1ccccc1Cl)NC(=O)c1ccc(Br)cc1	55.8 µM (inactive)	62.8 µM (inactive)	> 100 µM (inactive)	40.6 µM (inactive)	> 100 µM (inactive)	> 100 µM (inactive)	55.5 µM (inactive)	28.2 µM (inactive)	18.2 µM (inactive)	28.4 µM (inactive)	> 10 µM (inactive)	–	33.9 µM (inactive)	> 100 µM (inactive)	> 100 µM (inactive)	–	> 100 µM (inactive)	40.5 µM (inactive)
